# Results published in patent publication US20170009228A1, “BIOLOGICAL MATERIALS AND THERAPEUTIC USES THEREOF” (IMPERIAL INNOVATIONS LIMITED, priority 2014, published 2017).
# Legend:
# [1] = test system: TLR4; experiment: Cytokine synthesis in embryonic fibroblasts or macrophages from TLR4 deficient mice; assay type: cell-based
# Description: (§1) MEFs express high levels of mRNA of all 9 murine TLRs and are specifically and highly responsive to TLR ligand activation. […] MEFs were isolated from d13 embryos harvested from age-matched, pregnant female wild type, TLR2, TLR4 and null mice (as described in Todaro (1963)). Fibroblasts were cultured at 2×10^4 cells/well in DMEM containing 10% (v/v) FBS and 100 U/ml penicillin/streptomycin in 96-well tissue culture plates for 24 hours before stimulation.
# (§2) BMDMs were derived by aspirating the femurs of age matched female wild type, TLR2 and TLR4 null mice as described in Butler (1999)) and culturing the cells for 7 days in DMEM, 20% (v/v) FBS, 10 ml/L (v/v) antibiotic-antimycotic solution PSA, 50 μM β-Mercaptoethanol and 10 ng/ml M-CSF. Macrophages were then cultured at 1×10^5 cells/well in DMEM, 20% (v/v) FBS, 10 ml/L (v/v) antibiotic-antimycotic solution PSA, 50 μM β-Mercaptoethanol in 96-well tissue culture plates for 24 hours before stimulation.
# (§3) Cells were incubated for 24 hours at 37° C. with the indicated doses of tenascin-C and recombinant tenascin-C fragments (1.0 μM-1.0 nM). Cells were also stimulated where indicated with LPS (1 ng/ml for human macrophages, 10 ng/ml for human fibroblasts, RA membrane cells and HEKs, 100 ng/ml for MEFS and BMDMs and 10 ng/ml for HEKS), PAM3 (10 ng/ml for human macrophages, human fibroblasts, and HEKs, 100 ng/ml for MEFs and BMDMs), murine IL-1 (5 ng/ml for MEFS) and murine TNF-α (100 ng/ml for MEFS). Unless specifically stated otherwise rough LPS was used for in vitro studies.
# (§4) Supernatants were subsequently examined for the presence of the cytokines TNF-α, IL-6, and IL-8 by enzyme-linked immunosorbent assay (ELISA) according to the manufacturer's instructions. Absorbance was read on a spectrophotometric ELISA plate reader (Labsystems Multiscan Biochromic, Vantaa, Finland) and analyzed using the Ascent software program (Thermo Labsystems, Altrincham, UK).
# [2] = test system: synovial membranes from RA patients; experiment: Cytokine synthesis in RA synovial membrane cells stimulated with FBG; assay type: cell-based, human; conditions: FBG 1.0-0.01 μM, 24 h
# Excerpt: RA membrane cells (representing a mixed population of all synovial cell types) were isolated from synovial membranes obtained from patients undergoing joint replacement surgery as previously described (Brennan (1989)). RA synovial fibroblasts were isolated from the mixed population of RA membrane cells as previously described (Brennan (1989)). The study was approved by the local Trust ethics committee (Riverside NHS Research Committee), and waste tissue (synovium after joint replacement surgery) was obtained only after receiving signed informed consent from the patient and anonymyzing the tissue to protect patient identity.
# Immediately after isolation, RA membrane cells and macrophages were cultured at 1×10^5 cells/well in RPMI 1640 containing 10% (v/v) FBS and 100 U/ml (Units/ml) penicillin/streptomycin in 96-well tissue culture plates for 24 hours before stimulation. […]
# as §4
# [3] = test system: TLR2; experiment: Cytokine synthesis in embryonic fibroblasts or macrophages from TLR2 deficient mice; assay type: cell-based
# Description: as §1, §2, §3, §4
# [4] = test system: wild type mice; experiment: Intra-articular injection of FBG in wild type mice, knee joint histology; assay type: in vivo
# Description: Wild type mice were anesthetized by intraperitoneal injection of 150 μl of Hypnorm diluted 1:10 in sterile water and then injected with 100 ng, 1 or 3 μg FBG in 10 μl of sterile PBS into the right knee joint using a sterile 33-gauge microcannula. Control mice received an injection of 10 μl PBS alone or were not injected.
# On days 3 and 7, mice were euthanized, the knee joints were excised and fixed in 10% (volume/volume) buffered formalin, decalcified, with 10% EDTA and processed to paraffin.
# Coronal tissue sections (4 μm) were cut at 7 depths throughout the joint; 80 μm apart and stained with hematoxylin and eosin or Safranin-O to assess joint pathology.
# Inflammation (the influx of inflammatory cells into synovium (infiltrate) and the joint cavity (exudates), was graded using an arbitrary scale from 0 (no inflammation) to 3 (severe inflammation). Chondrocyte death was determined as the percentage of cartilage area containing empty lacunae in relation to the total area. Cartilage surface erosion was determined as the amount of cartilage lost in relation to the total cartilage area. Bone destruction was determined in 10 different areas of the total knee joint section. Destruction was graded on a scale of 0 (no damage) to 3 (complete loss of bone structure). Histological analysis was performed by an investigator who was blinded to the experimental groups. The mean score for each animal in an experimental group was calculated by averaging the histopathologic scores in at least 5 section depths per joint.
# [5] = test system: MyD88; experiment: FBG stimulation of RA synovial fibroblasts infected with adenovirus expressing dominant negative MyD88; assay type: cell-based, human; conditions: 1 μM FBG
# Excerpt: Recombinant, replication-deficient adenoviral vectors encoding wild type MyD88 (AdMyD88wt), dominant-negative forms of MyD88 (AdMyD88dn) and the GFP control (AdGFP) were constructed in-house. A description of the synthesis of these viruses is in Andreakos (2004). All viruses used in this study are E1/E3 deleted, belong to the Ad5 serotype. Viruses were propagated in 293 human embryonic kidney cells, purified by ultracentrifugation through two cesium chloride gradients, and viral titers determined by plaque assay as previously described (Sacre (2007)).
# For adenoviral gene transfer experiments, human RA synovial fibroblasts were incubated with adenoviral vectors at a multiplicity of infection of 100, washed after 2 hours, cultured in complete medium for 24 hours, then stimulated for 24 hours, after which time supernatants were collected.
# as §4
# [6] = test system: synovial fibroblasts from RA patients (RAF); experiment: Cell adhesion to coated FBG, RA synovial fibroblasts; assay type: cell-based, human; conditions: coated wells, 45 minutes, crystal violet
# Description: (A) The sequence identified to bind integrin ≢vβ3 is shown in white (Yokoyama et al., 2000). Within this sequence two Arginines (shown in black) were identified to be citrullinated. (B) Wells of a 96 well plate were coated with different concentrations of FBG, citrullinated FBG (cFBG), FBG incubated in buffer without Calcium (FBG —Ca^2+), or FBG incubated without PAD (FBG -PAD). As a positive control wells were coated with Fibronectin (FN) (1 ug/ml), and coating with BSA (10 mg/ml) served as negative control. Plates were incubated with human dermal fibroblasts (HDF) or synovial fibroblasts from RA patients (RAF) for 45 minutes and adhesion was measured by determining absorbance of attached cells after staining with crystal violet (0.1%). Data are shown as the mean of at least four independent experiments+s.e.m., *=p<0.05, **=p<0.01.
# [7] = 1 μg FBG, 3 days after injection
substance,measurement,setting,value
"FBG: recombinant fibrinogen-like globe, 227 amino acid globular domain at the C terminal of tenascin-C",cytokine synthesis,[1],does not stimulate cytokine synthesis
same,"synthesis of IL-6, IL-8 and TNF-α",[2],further enhanced
same,cytokine synthesis,[3],unaffected
same,inflammation and proteoglycan loss,[4]; 100 ng FBG intra-articular,No inflammation or proteoglycan loss
same,knee joint histology,"[4]; 1 μg FBG intra-articular, 3 days","inflammatory cell infiltration (FIG. 6f), mild synovitis, pannus formation (FIG. 6g) and proteoglycan loss"
same,histological quantification: cartilage surface erosion and bone damage,[4]; [7],modest amount
same,"histological quantification: cellular infiltrate, exudate and chondrocyte death",[4]; [7],high levels
same,knee joint histology,[4]; 3 μg FBG intra-articular,A similar response
same,joint inflammation,"[4]; wild type mice, intra-articular, 100 ng, 1 or 3 μg",transient and dose dependent stimulation of joint inflammation
same,FBG induction of IL-6,[5],abolished
same,adhesion of synovial fibroblasts from RA joints (RAF),[6],proadhesive
